Test results as given in the NIST ThermoML archive (doi:10.1021/acs.jced.9b00844).
± gives the expanded uncertainty stated by the source.

Key:
[1] = Crystal; DSC
[2] = Molar enthalpy of transition or fusion; conditions: Crystal; DSC

- Triple point temperature [1]: 446.85 ± 1.2 K
- Molar enthalpy of transition or fusion [2]: 2.78 ± 0.179 kcal/mol
Compound: N=C(N)NC(=N)NCCc1ccccc1 [N-(2-phenylethyl)imidodicarbonimidic diamide]
